Assays:
[1] = test system: SK-MEL-28 cells; assay: RT-qPCR of RNA levels after hGH addition or GHR-KD; type: cell-based, human
Experimental: For hGH treatment, 16 hours after seeding (or 24 hours post-transfection), the cells were serum-starved for 2 hours in serum-free growth media, and hGH (phosphate buffered saline was used as control where applicable) was added at the noted concentrations (0-, 5-, 50-, and 150 ng/ml). Cells were subsequently incubated for 24 hours before evaluating RNA levels. Recombinant hGH was purchased from Antibodies Online (#ABIN2017921, Atlanta, Ga.).
Transfection was performed using siLentFect lipid reagent (Biorad #170-3360, Hercules, Calif.) following the manufacturer's protocol. […] Mock transfections were performed using universal scrambled negative control siRNA-duplex (Origene #SR30004). TYE-563-fluorescent labeled siRNA duplex (Origene #SR30002) was used as the transfection control. Cells were trypsinized, counted using a Countess Automated Cell Counter (Life Technologies, Carlsbad, Calif.), and seeded at 25,000-30,000 cells/cm^2, the cells being allowed to attach for 16-18 hours. The growth media was replaced with fresh antibiotic free complete growth medium just prior to transfection. […] Media was changed to complete growth medium plus antibiotics after 24 hours. RNA levels were analyzed 48 hours post-transfection, and protein levels were analyzed at 60 hours post-transfection.
RNA extraction was performed using the IBI-Trizol based total RNA purification kit (MidSci #IB47632, St. Louis, Mo.), and reverse transcription was performed using Maxima First Strand cDNA synthesis kit (Thermo Fisher Scientific #K1642, Waltham, Mass.) following the manufacturers' protocols. Real time-quantitative PCR and melt curve analysis were performed using Maxima SYBR-Green qPCR master mix (Thermo Fisher Scientific #K0241) and a T100 thermal cycler (Biorad #1861096, Hercules, Calif.). RNA and DNA concentrations were estimated using a Nanodrop2000 (Thermo Fisher Scientific, Waltham, Mass.) spectrophotometer. Primers were obtained from Sigma-Aldrich for the following human genes, with primer efficiency being experimentally confirmed: GAPDH, b-Actin, GHR, GHRHR, SOCS2, IGF1, IGF1R, IGF2, IGF2R, PRL, PRLR, insulin (Ins), IR, IGFBP2, IGFBP3, EGFR, HGF, cMET and ERBB3. Each sample represented a pool of two replicates per experiment. Experiments were performed at least three times. Each qPCR for individual genes and every treatment for every cell type was performed in triplicates.
And so—referring now to FIGS. 12A-12B, 17A-17C, 18A-18F, 19A-19F, and 20A-20F—RT-qPCR analysis of GH-IGF axis in human melanoma cells (FIGS. 12A-12B) and RT-qPCR analysis of GH-GHR and PRL-PRLR pairs in human melanoma cells (FIGS. 17A-17C) was performed. […] And, while not shown in FIGS. 12A and 12B, similar results for MALME-3M, MDA-MB-435 and SK-MEL-5 human melanoma cells are presented in FIGS. 13A-13L, 17A-17C, 18A-18F, 19A-19F, and 20A-20F. […] In all cases, exogenous hGH treatment was for 24 hr. RNA levels were normalized against expression of beta-actin and GAPDH as reference genes. […] Cells were grown in presence of 50 ng/mL exogenous GH and protein level changes were estimated 60 hr. post-transfection. [*, p<0.05, Students t test, n=3]. […] The percentage free area at the end time point was calculated using ImageJ software and reflected the decrease/inhibition in migration. […] [*, p<0.05, Students t-test, n=3]. In all cases, exogenous hGH treatment was for 24 hr. RNA levels were normalized against expression of β-actin and GAPDH as reference genes [*, p<0.05, Wilcoxon sign rank test, n=4]. […] In all cases, exogenous hGH treatment was for 24 hr. RNA levels were normalized against expression of β-actin and GAPDH as reference genes. [*, p<0.05, Wilcoxon sign rank test, n=4]

[2] = test system: melanoma cells; assay: Migration, invasion, clonogenicity with excess GH; type: cell-based, human; details: up to 150 ng/ml GH
Experimental: Cell migration assays are standard methods of estimating the repair and regenerative properties of cells. In this example, the Radius Cell Migration Assay design from Cell Biolabs (Cell Biolabs #CBA-125, San Diego, Calif.) was used, and experiments were performed as per the manufacturer's protocol. In this assay, a 24-well plate containing a non-toxic, 0.68 mm biocompatible hydrogel spot is present at the center of the well, which spot prevents the attachment of cells. siRNA treated cells were trypsinized 48 hours post-transfection, counted, and seeded at 5000 cells/well in a pretreated hydrogel spot-containing 24-well plate. […] Images were captured every 24 hours using a 4× objective (total magnification 40×) employing an inverted Olympus IX70 microscope fitted with a Retiga 1300 camera (QImaging, Surrey, BC). Total uncovered area at the beginning and end of assay were quantitated using ImageJ software, Experiments were performed in triplicates.
The 96-well 3D spheroid BME cell invasion assay (Trevigen, Gaithersburg, Md.) was used to evaluate the ability of cells to invade surrounding tissue. […] The invasive behavior of the cells was monitored every 24 hours for up to 72 hours. […] Total pixels at the beginning and end of assay were quantitated using ImageJ software. […]
Colony formation on soft agar assay was next examined using a high-throughput fluorescent readout. […]

[3] = 0, 5, 50 and 150 ng/mL hGH, 24 hr

hGH: Recombinant human growth hormone, Antibodies Online #ABIN2017921
IGFBP2 RNA levels at high GH levels [1]: increase
N-cadherin RNA levels with increase of GH [1]: significant dose-dependent increase
vimentin RNA levels with increase of GH [1]: significant dose-dependent increase
RNA levels of MITF with GH [1, 3]: dose dependent increase
RNA levels of TYRP1 with GH [1, 3]: dose-dependent increase
melanoma migration, invasion, or clonogenicity upon incubation with excess GH [2]: No marked increase
